Data set [1] can be described thus: Skin permeation studies by Franz diffusion cells. The format is in vitro ADME, human. The settings on record: TPGS-Dil and TPSS-Dil micelles 10 mg/mL, 8 h. How it is done:
Breast skin samples were obtained from healthy women undergoing plastic surgery after written informed consent (kindly donated by Hospital la Fe, Valencia, Spain). Immediately after excision, the subcutaneous fatty tissue was carefully removed using a scalpel. The skin was cut into 4 cm^2 pieces, wrapped in aluminum foil and stored at −20° C. until use. To reduce inter-individual variability and afford a better comparison of results, skin from only one donor was used in all experiments. Before starting each experiment, the skin was allowed to equilibrate at room temperature (r.t.).
Permeation studies employed the modified Franz diffusion cells (Logan Instruments Corp., EE. UU) with a diffusional area of 0.95 cm^2. […]
Finally, the samples were placed in the optimum cutting temperature (OCT) inclusion medium, and slides of 5 μm were generated via cryostat (version CM1850 UV, Leica, Germany) and samples were analyzed by confocal microscopy.
Images were captured with an inverted DM IRE2 microscope equipped with a λ-blue 40× oil immersion objective and handled with a TCS SP2 system, equipped with an Acoustic Optical Beam Splitter (AOBS). […] Control tissue that follows the same incubation time with MilliQ water was also analyzed to establish the autofluorescence. Dil intensity was quantified five times per sample using Image J software.

The next data set deals with human fibroblasts. Put plainly: Cell viability by MTS assay, fibroblasts. The data set is classed as cell-based. To be noted: 72 h, 0.1 to 2.57 μg/mL equivalents of Vitamin E. On the technique in general: Formazan colour is commonly taken as a measure of viable cells.
A further data set relates to HaCaT cells. Put plainly: Cell viability by MTS assay, HaCaT. The data set is classed as cell-based, human. The settings on record: 72 h, 0.1 to 2.57 μg/mL equivalents of Vitamin E.

Regarding `CCCCCCCCCCCCCCCCCCN1C(=CC=CC2=[N+](CCCCCCCCCCCCCCCCCC)c3ccccc3C2(C)C)C(C)(C)c2ccccc21.[O-][Cl+3]([O-])([O-])[O-]` [Dil, 1,1′-dioctadecyl-3,3,3′,3′-tetramethylindocarbocyanine perchlorate], in data set [1], the “Dil found in the receptor chamber” value was “any Dil was found in the receptor chamber”. As to `Cc1c(C)c2c(c(C)c1O)CC[C@@](C)(CCC[C@H](C)CCC[C@H](C)CCCC(C)C)O2` [Vitamin E, α-tocopherol], the “cytotoxic effect (cell viability by MTS)” value in the data set with human fibroblasts and with HaCaT cells was “no cytotoxic effect” throughout.

Source of the values: US20250049931A1, “POLYSARCOSINE-VITAMIN E DERIVATIVES” (POLYPEPTIDE THERAPEUTIC SOLUTIONS, S.L., priority 2021, published 2025).
